These results are taken from ChEMBL document CHEMBL1201862, “PubChem BioAssay data set” (2004).

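Step 1: Grow cells in 96-well plates. Step 2: Expose to compound for 48 hours at 5 concentrations. Step 3: Interpolate endpoints linearly; if unreached, use highest concentration. Abbreviation: GI50, concentration required for 50% inhibition of growth.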 The source made the active and inactive calls. Rule as the data show it: active = GI50 up to about 1.1 µM and inactive = higher. Where only a bound is given, the exact number is not on record here.

Common to all, as to experiment: NCI-60 cell line screen, 48 h
Assay [1] has as its system HCT-15.
Assay [2] has as its system HL-60.
Assay [3] has as its system HT-29.
Assay [4] deals with MCF7.
In assay [5] the test system is Malme-3M.
The subject of assay [6] is NCI-H522.
Assay [7] relates to OVCAR-4.
The test system of assay [8] is PC-3.
Assay [9] deals with SF-268.
In assay [10] the test system is SF-295.
For assay [11], the system named is SK-MEL-28.
The subject of assay [12] is SK-MEL-2.
Assay [13] deals with SK-MEL-5.
In assay [14] the test system is SN12C.
Assay [15] relates to SR.
Assay [16] relates to UACC-257.
The subject of assay [17] is UACC-62.
The subject of assay [18] is HOP-92.
The test system of assay [19] is NCI-H23.
Assay [20] has as its system HCC 2998.

Regarding `COc1nc2c(c(=O)n1C)N[C@@H]1[C@@H](O)[C@H](O)CO[C@@H]1N2`, the GI50 in [1] is greater than 100 µM; in assay [2] it was > 100 µM (inactive); in [3], > 100 µM (inactive); in [4] it was > 100 µM (inactive); in assay [5] it was 39.4 µM (inactive); in assay [6] it was 38.2 µM (inactive). Besides, the GI50 in assay [7], in [8], in [9], in [10], in [11] and in [12] was > 100 µM (inactive) in each case. Further, the GI50 in assay [13], in assay [14], in [15], in [16] and in [17] was > 100 µM (inactive) in each case.

`CC(C)N(c1cc2c(cc1F)c(=O)c(C(=O)O)cn2-c1ccc(N2CCN(C)CC2)cn1)C(C)C`: the GI50 in assay [1] was greater than 100 µM; in assay [2], > 100 µM (inactive); in [18], > 100 µM (inactive); in [3] it was > 100 µM (inactive); in assay [4] it was > 100 µM (inactive); in assay [5] it was > 100 µM (inactive). The GI50 in assay [19], in assay [7], in [8], in assay [9], in assay [10] and in assay [11] was > 100 µM (inactive) each time. In addition, the GI50 was > 100 µM (inactive) in assay [14], > 100 µM (inactive) in assay [15], > 100 µM (inactive) in assay [16] and > 10 µM (inactive) in assay [17].

With `CCOC(=O)c1ccc(/N=C2\Sc3nc4ccccc4n3\C2=N\c2ccc(C(=O)OCC)cc2)cc1`, the GI50 in [20] was 41.8 µM (inactive); in assay [1] it was 51.4 µM; in assay [2], > 100 µM (inactive); in [18] it was 12.8 µM (inactive); in assay [3], 19.6 µM (inactive); in assay [4], 8.83 µM (inactive). Moreover, the GI50 in assay [5] was 22.7 µM (inactive); in assay [19] it was 22.6 µM (inactive); in assay [6], 24.7 µM (inactive); in assay [7] it was 24.3 µM (inactive); in assay [8], 37.7 µM (inactive); in assay [9], 22.3 µM (inactive). For the same molecule, the GI50 in [10] was 16.2 µM (inactive); in [11], 39.2 µM (inactive); in [12] it was 39.3 µM (inactive); in assay [13] it was 25.9 µM (inactive); in [14], 40.6 µM (inactive); in [16], 31.5 µM (inactive). The GI50 in [17] was 16.1 µM (inactive).

For the molecule `CC(C)(C)n1c(=O)n2n(c1=O)C1c3cccc4cccc(c34)C2C2c3cccc4cccc(c34)C1n1c(=O)n(C(C)(C)C)c(=O)n12`, the GI50 is 64.3 µM (inactive) in assay [20]; 74.5 µM in assay [1]; 30.5 µM (inactive) in [2]; > 100 µM (inactive) in assay [18]; > 100 µM (inactive) in assay [3]; > 100 µM (inactive) in assay [4]. Moreover, the GI50 in [5] was > 100 µM (inactive); in assay [19] it was 95.7 µM (inactive); in assay [6], 36 µM (inactive); in assay [8], 59.8 µM (inactive); in assay [9], 53.8 µM (inactive); in [10] it was 80.4 µM (inactive). Further, the GI50 in assay [11] was > 100 µM (inactive); in [12] it was 37.5 µM (inactive); in assay [13], > 100 µM (inactive); in assay [14], > 100 µM (inactive); in [16] it was > 100 µM (inactive); in assay [17] it was 66.4 µM (inactive).

Regarding `CCc1cc2c(c3c1CCCC3=O)CC1(Cc3ccc(C(=O)OC)cc3C1)C2` (stereo not drawn), the GI50 in assay [20] was 93.1 µM (inactive); in assay [1] it was greater than 100 µM; in [2] it was 22.5 µM (inactive); in [18], 29.1 µM (inactive); in assay [3] it was 68.1 µM (inactive); in assay [4], 24 µM (inactive). In addition, the GI50 in assay [5] was 49.2 µM (inactive); in [19] it was 85.7 µM (inactive); in assay [6] it was 51.1 µM (inactive); in assay [7], 40.9 µM (inactive); in assay [8] it was 14.4 µM (inactive); in assay [9], > 100 µM (inactive). The GI50 is 85.7 µM (inactive) in assay [10]; 64 µM (inactive) in [11]; > 100 µM (inactive) in assay [12]; 15 µM (inactive) in [13]; > 100 µM (inactive) in assay [14]; 32.1 µM (inactive) in [16].

For the molecule `CN(C)CCCNCc1cccc2ccccc12`, the GI50 was greater than 100 µM in assay [1]; > 100 µM (inactive) in [2]; 78.3 µM (inactive) in [18]; > 100 µM (inactive) in [3]; > 100 µM (inactive) in [4]; > 100 µM (inactive) in assay [5]. Besides, the GI50 in assay [19], in [7], in [8], in [9], in assay [10] and in assay [11] was > 100 µM (inactive) each time. In addition, the GI50 was > 100 µM (inactive) in [12]; > 100 µM (inactive) in assay [13]; > 100 µM (inactive) in assay [14]; 25.6 µM (inactive) in assay [15]; > 100 µM (inactive) in assay [16]; > 100 µM (inactive) in [17].

For the molecule `COc1ccc(/C=C2\CCC(C)C3=C2N=c2s/c(=C/c4cccc(Br)c4)c(=O)n2C3c2ccc(OC)c(OC)c2)cc1OC` (stereo not drawn), the GI50 in assay [1] is greater than 100 µM; in [2], > 100 µM (inactive); in [18], > 100 µM (inactive); in [3], > 100 µM (inactive); in [4] it was > 100 µM (inactive); in assay [7] it was > 100 µM (inactive). The GI50 in assay [8], in [9], in assay [11], in assay [12], in assay [13] and in [14] was > 100 µM (inactive) in each case. Besides, the GI50 in [15], in assay [16] and in [17] was > 100 µM (inactive) each time.

For the molecule `CCCCC/C=C\C=C\CCCCCCCCC(=O)OC`, the GI50 was greater than 100 µM in assay [1]; > 100 µM (inactive) in [2]; > 100 µM (inactive) in [18]; > 100 µM (inactive) in assay [3]; > 100 µM (inactive) in [4]; > 100 µM (inactive) in assay [5]. For the same molecule, the GI50 in [19], in assay [7], in assay [8], in assay [9], in assay [10] and in assay [11] was > 100 µM (inactive) in each case. The GI50 in assay [12] is > 100 µM (inactive); in assay [13], 24 µM (inactive); in assay [14], > 100 µM (inactive); in [15], > 100 µM (inactive); in assay [16], > 100 µM (inactive).
